One assay addresses T1, human EHMT2 913-1193 (Homo sapiens, UniProt Q96KQ7).
T1 construct: recombinant purified human EHMT2 913-1193, Viva; purchased Viva
T1 sequence (Q96KQ7 913-1193): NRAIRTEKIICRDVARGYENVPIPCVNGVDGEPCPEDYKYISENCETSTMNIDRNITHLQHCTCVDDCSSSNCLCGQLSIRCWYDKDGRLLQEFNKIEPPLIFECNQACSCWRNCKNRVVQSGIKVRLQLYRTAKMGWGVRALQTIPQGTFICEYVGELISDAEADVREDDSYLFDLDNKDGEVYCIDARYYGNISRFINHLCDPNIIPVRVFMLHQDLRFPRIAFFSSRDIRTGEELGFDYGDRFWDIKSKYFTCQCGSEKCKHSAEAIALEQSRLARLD
The experiment in a line: EHMT2 enzyme assay on histone peptide substrate (EHMT2 PEP). Type of assay: biochemical. As to conditions: Table II; read-out: EHMT2 PEP (IC50 μM). Here is the method:
Recombinant purified human EHMT2 913-1193 (55 μM) synthesized by Viva was used for all experiments. Biotinylated histone peptides were synthesized by Biopeptide and HPLC-purified to >95% purity. Streptavidin Flashplates and seals were purchased from PerkinElmer and 384 Well V-bottom Polypropylene Plates were from Greiner. ^3H-labeled S-adenosylmethionine (^3H-SAM) was obtained from American Radiolabeled Chemicals with a specific activity of 80 Ci/mmol. Unlabeled SAM and S-adenosylhomocysteine (SAH) were obtained from American Radiolabeled Chemicals and Sigma-Aldrich respectively. Flashplates were washed in a Biotek ELx-405 with 0.1% Tween. 384-well Flashplates and 96-well filter binding plates were read on a TopCount microplate reader (PerkinElmer). Compound serial dilutions were performed on a Freedom EVO (Tecan) and spotted into assay plates using a Thermo Scientific Matrix PlateMate (Thermo Scientific). Reagent cocktails were added by Multidrop Combi (Thermo Scientific).
General Procedure for EHMT2 Enzyme Assay on Histone Peptide Substrate.
10-point curves of test compounds were made on a Freedom EVO (Tecan) using serial 3-fold dilutions in DMSO, beginning at 2.5 mM (final top concentration of compound was 50 μM and the DMSO was 2%). A 1 μL aliquot of the inhibitor dilution series was spotted in a polypropylene 384-well V-bottom plate (Greiner) using a Thermo Scientific Matrix PlateMate (Thermo Scientific). […] Compounds were incubated for 30 minutes with 40 μL per well of 0.031 nM EHMT2 (recombinant purified human EHMT2 913-1193, Viva) in 1× assay buffer (20 mM Bicine [pH 7.5], 0.002% Tween 20, 0.005% Bovine Skin Gelatin and 1 mM TCEP). […] Reactions were incubated for 60 minutes at room temperature and quenched with 10 μL per well of 400 μM unlabeled SAM, then transferred to a 384-well streptavidin Flashplate (PerkinElmer) and washed in a Biotek ELx-405 well washer with 0.1% Tween after 60 minutes. 384-well Flashplates were read on a TopCount microplate reader (PerkinElmer).

A further assay addresses T2, EHMT1 (Homo sapiens, UniProt Q9H9B1).
T2 sequence (Q9H9B1 1-1298): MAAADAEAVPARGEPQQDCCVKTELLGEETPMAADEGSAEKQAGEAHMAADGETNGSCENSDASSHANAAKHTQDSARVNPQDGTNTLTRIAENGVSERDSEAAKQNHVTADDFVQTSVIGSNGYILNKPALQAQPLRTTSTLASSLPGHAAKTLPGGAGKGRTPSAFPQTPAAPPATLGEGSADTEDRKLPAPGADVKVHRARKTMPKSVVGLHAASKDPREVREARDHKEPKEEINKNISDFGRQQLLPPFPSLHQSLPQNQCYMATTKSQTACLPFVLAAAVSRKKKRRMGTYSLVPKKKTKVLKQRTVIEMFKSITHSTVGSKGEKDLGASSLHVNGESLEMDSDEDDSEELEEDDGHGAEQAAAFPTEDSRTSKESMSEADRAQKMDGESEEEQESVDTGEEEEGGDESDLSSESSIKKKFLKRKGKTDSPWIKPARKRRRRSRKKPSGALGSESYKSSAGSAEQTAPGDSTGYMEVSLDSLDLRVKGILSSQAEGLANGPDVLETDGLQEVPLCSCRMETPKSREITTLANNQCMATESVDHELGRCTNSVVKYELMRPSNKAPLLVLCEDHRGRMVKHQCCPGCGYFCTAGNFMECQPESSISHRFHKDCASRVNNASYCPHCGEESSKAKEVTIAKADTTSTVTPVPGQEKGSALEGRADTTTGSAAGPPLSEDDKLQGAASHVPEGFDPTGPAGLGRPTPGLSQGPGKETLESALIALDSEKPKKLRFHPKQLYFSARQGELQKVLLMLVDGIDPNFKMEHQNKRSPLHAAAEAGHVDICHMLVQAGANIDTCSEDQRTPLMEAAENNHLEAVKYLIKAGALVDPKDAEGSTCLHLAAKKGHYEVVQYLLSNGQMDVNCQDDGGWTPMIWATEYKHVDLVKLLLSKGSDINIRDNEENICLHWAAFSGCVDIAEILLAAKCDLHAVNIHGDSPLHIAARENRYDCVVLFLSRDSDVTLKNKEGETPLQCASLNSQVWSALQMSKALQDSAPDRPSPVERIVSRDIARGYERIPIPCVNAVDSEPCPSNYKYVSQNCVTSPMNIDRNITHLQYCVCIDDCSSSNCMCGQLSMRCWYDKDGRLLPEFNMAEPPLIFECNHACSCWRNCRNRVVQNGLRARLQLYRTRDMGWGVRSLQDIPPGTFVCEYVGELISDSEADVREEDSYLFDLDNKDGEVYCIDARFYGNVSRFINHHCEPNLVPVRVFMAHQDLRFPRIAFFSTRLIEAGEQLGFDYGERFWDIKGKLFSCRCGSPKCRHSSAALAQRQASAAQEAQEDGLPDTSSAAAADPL
The assay is described as follows: EHMT1 enzyme assay on peptide substrate (EHMT1 PEP). It counts as biochemical. As to conditions: Table II; read-out: EHMT1 PEP (IC50 μM).

In patent publication US20210198277A1, “AMINE-SUBSTITUTED ARYL OR HETEROARYL COMPOUNDS” (Epizyme, Inc., priority 2016, published 2021) one finds IC50 data, which are given here for 23 molecules.

The term IC50 denotes the concentration at which inhibition is half-maximal.

Regarding `COc1ccc(Nc2nccc(N3CCOCC3)n2)cc1OCCCN1CCCC1` [Compound 102], the half-inhibitory concentration (IC50) on human EHMT2 913-1193 and at EHMT1 was above 10 µM in each case.
For `COc1ccc(Nc2nccc(CNC3CCNCC3)n2)cc1OCCCN1CCCC1` [Compound 104], the IC50 on human EHMT2 913-1193 and at EHMT1 was above 10 µM each time.
`O=C1Cc2cc(C(=O)NCCNc3nccc(NCC4CCNCC4)n3)ccc2N1` [Compound 105]: the IC50 was 1 to 10 µM at human EHMT2 913-1193 and above 10 µM at EHMT1.
On the same counts, the results for `COc1ccc(Nc2nccc(CNC3CCN(C(C)=O)CC3)n2)cc1OCCCN1CCCC1` [Compound 106] are 1 to 10 µM and 0.1 to 1 µM.
With `COc1ccc(Nc2nccc(CNC3CCOCC3)n2)cc1OCCCN1CCCC1` [Compound 107], the IC50 at human EHMT2 913-1193 and at EHMT1 was above 10 µM in each case.
Turning to `COc1ccc(Nc2cc(NCC3CCNCC3)ncn2)cc1OCCCN1CCCC1` [Compound 108], the IC50 on human EHMT2 913-1193 and at EHMT1 was 1 to 10 µM each time.
Regarding `COc1ccc(Nc2nccc(NCC3CCNCC3)n2)cc1OCCCC1CCCC1` [Compound 109], the IC50 on human EHMT2 913-1193 and at EHMT1 was 1 to 10 µM throughout.
Regarding `COc1cnc(Nc2cc(CNC3CCOCC3)ccn2)cc1OCCCN1CCCC1` [Compound 110], the IC50 on human EHMT2 913-1193 and on EHMT1 was 1 to 10 µM in each case.
In the case of `COc1ccc(Nc2nccc(CNC3CCN(C)CC3)n2)cc1OCCCN1CCCC1` [Compound 111], the IC50 at human EHMT2 913-1193 and on EHMT1 was above 10 µM in each case.
Take `COc1ccc(Nc2nccc(CN(C)C3CCOCC3)n2)cc1OCCCN1CCCC1` [Compound 112]: the concentration for half-maximal inhibition (IC50) on human EHMT2 913-1193 and at EHMT1 was above 10 µM each time.
For the molecule `COc1ccc(Nc2cccc(NCC3CCNCC3)n2)cc1OCCCN1CCCC1` [Compound 113], the IC50 at human EHMT2 913-1193 and at EHMT1 was 1 to 10 µM in each case.
Turning to `CC(=O)N1CCC(CNc2ccnc(Nc3cccc(NC(=O)CCN4CCCC4)c3)n2)CC1` [Compound 114], the IC50 at human EHMT2 913-1193 and at EHMT1 was above 10 µM each time.
Consider `CC(=O)N1CCC(CNc2ccnc(Nc3cccc(NC(=O)c4ccc5c(c4)CC(=O)N5)c3)n2)CC1` [Compound 115], for which the IC50 at human EHMT2 913-1193 and at EHMT1 was above 10 µM each time.
With `COc1ccc(Nc2nccc(NCC3CCNCC3)n2)cc1OCCCN1CCCC1Cc1ccccc1` (stereo not shown) [Compound 116], the IC50 at human EHMT2 913-1193 and on EHMT1 was 1 to 10 µM each time.
`COc1ccc(Nc2nccc(NCC3CCN(C(C)=O)CC3)n2)cc1OCCCN1CC[C@H](F)C1` [Compound 117]: the IC50 on human EHMT2 913-1193 and on EHMT1 was 1 to 10 µM throughout.
With `COc1ccc(Nc2nccc(NCC3CCN(C(C)=O)CC3)n2)cc1OCCCN1CC[C@@H](F)C1` [Compound 118], the IC50 at human EHMT2 913-1193 and on EHMT1 was 0.1 to 1 µM each time.
As to `COc1ccc(Nc2nccc(NCC3CCN(C(C)=O)CC3)n2)cc1OCCCN1CCCC1=O` [Compound 119], the half-inhibitory concentration (IC50) on human EHMT2 913-1193 and on EHMT1 was above 10 µM each time.
In the case of `COc1ccc(Nc2nccc(NCC3CCN(C(C)=O)CC3)n2)cc1OCC1CCCN1C` (stereo not shown) [Compound 120], the IC50 was in the range of 1 to 10 µM at human EHMT2 913-1193 and 0.1 to 1 µM on EHMT1.
In the same order, the values of `COc1ccc(Nc2nccc(NCC3CCN(C(C)=O)CC3)n2)cc1NC(=O)CCN1CCCC1` [Compound 121] are 1 to 10 µM and 1 to 10 µM.
In the case of `CC(=O)N1CCC(CNc2ccnc(Nc3cccc(NC(=O)c4cc(C5CC5)on4)c3)n2)CC1` [Compound 122], the IC50 on human EHMT2 913-1193 and on EHMT1 was above 10 µM in each case.
Take `CC(=O)N1CCC(CNc2ccnc(Nc3cccc(NC(=O)c4cn(C5CC5)nn4)c3)n2)CC1` [Compound 123]: the IC50 on human EHMT2 913-1193 and at EHMT1 was above 10 µM in each case.
Consider `COc1ccc(Nc2nccc(N3CCCC3)n2)cc1OCCCN1CCCC1` [Compound 124], for which the concentration for half-maximal inhibition (IC50) at human EHMT2 913-1193 and on EHMT1 was 1 to 10 µM throughout.
Turning to `COc1ccc(Nc2nccc(N3CCCCC3)n2)cc1OCCCN1CCCC1` [Compound 125], the IC50 at human EHMT2 913-1193 and on EHMT1 was 1 to 10 µM throughout.
